Reference: BindingDB's records for doi:10.7270/Q28K77GS (University of Pittsburgh, 2007)

The molecules below were run against T1, Dual specificity protein phosphatase 1 (Homo sapiens, UniProt P28562) (assay: MKP-1 phosphatase inhibitors, dose response, biochemical, probe assessment (AID 674)).
T1 sequence (P28562 whole entry): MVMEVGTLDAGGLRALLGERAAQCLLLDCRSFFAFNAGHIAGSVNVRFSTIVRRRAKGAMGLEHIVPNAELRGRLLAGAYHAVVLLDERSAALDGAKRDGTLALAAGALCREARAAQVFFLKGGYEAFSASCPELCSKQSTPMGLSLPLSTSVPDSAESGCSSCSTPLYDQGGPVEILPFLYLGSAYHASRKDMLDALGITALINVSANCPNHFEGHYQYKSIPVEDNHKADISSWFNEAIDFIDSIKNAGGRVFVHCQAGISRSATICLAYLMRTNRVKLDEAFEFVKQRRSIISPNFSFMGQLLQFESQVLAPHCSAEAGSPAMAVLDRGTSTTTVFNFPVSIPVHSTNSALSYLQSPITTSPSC

Structure (SMILES) | IC50 [µM]
N#Cc1c(N)sc(=S)c2c1CCN(Cc1ccccc1)C2 [3-Amino-7-benzyl-1-thioxo-5,6,7,8-tetrahydro-1H-thiopyrano[3,4-c]pyridine-4-carbonitrile] | 2.38
O=C(Nc1ccc2nc(-c3ccco3)c(-c3ccco3)nc2c1)N1CCCCCC1 | > 50
COc1ccc(Br)cc1C=c1sc2nc(-c3ccco3)nn2c1=O [5-[(5-bromanyl-2-methoxy-phenyl)methylidene]-2-(furan-2-yl)-[1,3]thiazolo[3,2-b][1,2,4]triazol-6-one] | 7.02
CCn1nc(-c2ccccc2)nc2c(=O)n(C)c(=O)nc1-2 [1-Ethyl-6-methyl-3-phenyl-1H-pyrimido[5,4-e][1,2,4]triazine-5,7-dione] | 0.485
[O-]/[N+](=C\c1ccncc1)c1ccccc1 | > 50
Cc1ccc2c(c1)C1C=CCC1C(C(=O)O)N2 (stereo not drawn) [MLS-0067149.0001] | > 50
O=C(O)C1Nc2c(O)cccc2C2C=CCC12 (stereo not drawn) | > 50
c1ccc(CSc2nnc(-c3ccco3)c(-c3ccco3)n2)cc1 [MLS-0029114.0001] | > 50
Cn1ncnc2c(=O)n(C)c(=O)nc1-2 | 0.423
[O-]/[N+](=C\c1ccc(OC(F)F)cc1)c1ccccc1 [1-[4-(difluoromethoxy)phenyl]-N-phenylmethanimine oxide] | > 50
Cc1ccccc1Nc1cc2ccccc2c(O)n1 [3-[(2-methylphenyl)amino]-2H-isoquinolin-1-one] | 8.75
Cc1ccc2c(c1C)NC(C(=O)O)C1CC=CC21 (stereo not drawn) | 42.5
Nc1cccc2cnccc12 [isoquinolin-5-amine] | > 50
O=C(NC1(O)C(=O)c2ccccc2C1=O)c1ccccc1 [N-(2-hydroxy-1,3-dioxo-2-indenyl)benzamide] | > 50
CC(=O)Nc1cc(OC(C)=O)c2nonc2c1OC(C)=O [Acetic acid 7-acetoxy-5-acetylamino-benzo[1,2,5]oxadiazol-4-yl ester] | > 50
O=C1C=Cc2ccccc2C1=O [1,2-dihydronaphthalene-1,2-dione] | > 50
CCn1nc(-c2cccs2)nc2c(=O)n(C)c(=O)nc1-2 [1-ethyl-6-methyl-3-thiophen-2-yl-pyrimido[5,4-e][1,2,4]triazine-5,7-dione] | 0.333
O=C1Cc2ccccc2C(=O)N1CCc1ccccc1 [2-(2-phenylethyl)-4H-isoquinoline-1,3-dione] | > 50
COc1cccc2c(C)c(C(=O)O)[nH]c12 | > 50

Further lines, results first:

IC50 [µM] | Structure (SMILES)
> 50 | O=C1C=Cc2ccccc2/C1=C/NC12CN3CCN(CN(C3)C1)C2 [MLS000071484]
4.61 | O=C(OC1CCCCC1)c1ccc2c(c1)C1C=CCC1C(C(=O)O)N2 (stereo not drawn) [SMR000019385]
> 50 | CCOC(=O)C(C(=O)OCC)c1cc(Br)c2noc3c2c1C(=O)c1ccccc1-3 [MLS000038842]
10.7 | Oc1nc(Nc2ccccc2)cc2ccccc12 [MLS000043701]
14.6 | N#Cc1c(N2CCCC2)nc(N)c2c(N)nc(N3CCCC3)cc12 [SMR000061605]
> 50 | COc1cccc2c1NC(C(=O)O)C1CC=CC21 (stereo not drawn) [SMR000009698]
> 50 | CCOc1ccc2noc3c2c1C(=O)c1ccccc1-3 [MLS000106837]
43.8 | Cc1c(N=c2c(=O)c3ccccc3c2=O)c(=O)n(-c2ccccc2)n1C [MLS000105950]
> 50 | COc1ccc2noc3c2c1C(=O)c1ccccc1-3 [MLS000106874]
